Assays:
Assay type in all cases: cell-based, human
miR-3189-3p = assay: qRT-PCR of miR-3189-3p expression in drug-treated LN-229 cells; conditions: for miR-3189-3p relative expression compared to untreated cells: LN-229, 48 h (FIG. 6E)
Experimental: (§1) Quantitative RT-PCR: Total RNA was isolated using the miRVana miRNA extraction kit (Ambion, Austin, Tex., USA). RNA was reverse transcribed using the High Capacity cDNA Reverse Transcription kit for mRNAs or TaqMan assays for microRNAs (Applied Biosystems, Carlsbad, Calif.). Quantitative real-time PCR was performed in duplicate using a Roche LightCycler 480 Real-Time PCR System (Indianapolis, Ind., USA). Each sample was normalized using GAPDH or RNU6B control (ΔCt) and relative quantification of gene expression was calculated using the comparative Ct (2^−ΔΔCt) method, as described in (Eletto et al., (2008) J. Cell. Physiol. 216: 764-770; Pacifici et al., (2013) J. Cell. Physiol. 228: 1070-1075; Rom et al., (2010) FASEB J. 24: 2292-2300 incorporated herein by reference in their entireties). For the clinical samples relative quantification was represented as 1/ΔCt to maintain real differences in Ct values between samples.

GDF15 mRNA [1] = assay: qRT-PCR of GDF15 expression in drug-treated LN-229 cells
Experimental: as §1
(§2) To further analyze the effects of fenofibrate on this gene, the human glioblastoma cell lines, LN-229 and U87MG were exposed to 50 μM fenofibrate and monitored the expression of GDF15 at 24 and 48 h time points. […] Following the treatment, total RNA was extracted and subjected to quantitative real-time PCR (qRT-PCR) using GDF15-specific and GAPDH-specific primers. The results in FIG. 6A show a 60- and 35-fold up-regulation of GDF15 gene expression in the two cell lines.

Ago2 immunocomplexes = assay: RNA-binding protein immunoprecipitation (RIP) with Ago2 antibody; conditions: extracts from FF-treated LN-229 cells
Experimental: RNA-Binding Protein Immunoprecipitation (RIP): RIP assay was performed using Argonaute 2 (Ago2) antibody from Millipore (RIPAb+Ago2 RIP). This kit included negative control mouse IgG antibody and control primers specific for human FOS, which were utilized for the optimization of Ago2-IP in the cellular model. The RIP Ago-IP was performed essentially as previously described (Curtale et al., (2013) Proc. Nat. Acad. Sci. U.S.A. 110: 11499-11504). In brief, 10×10^6 LN-229 cells were used for Ago2-IP and for the IgG isotype control; 2×10^6 cells were used for the extraction of total RNA and for total protein lysates. The cell monolayer was washed twice with cold PBS, and lysed in 500 μl of Lysis Buffer (150 mM KCl, 25 mM Tris-HCl pH 7.4, 5 mM EDTA, 0.5% NP40, 5 mM DTT) supplemented with 10 mM Protease Inhibitor Cocktail, 10 mM PMSF, 10 mM Phosphatase Inhibitor, 10 mM Na3VO4 and 100 U/ml RNase Inhibitor (Applied Biosystems). After 30 min of incubation on ice, lysates were centrifuged for 30 min at 14,000 rpm at 4° C. in a microcentrifuge. 30 μL of Protein A/G Magnetic Beads (Pierce, Thermo Scientific, Waltham, Mass.) were washed three times with Blocking Solution (0.5% BSA dissolved in DPBS+/+) and incubated for 1 h at 4° C. with 5 μg of anti-Ago2 mouse monoclonal IgG1κ or with isotype IgG1κ control antibodies (Millipore). The immunocomplexes were washed three times with Blocking Solution. […]

GDF15 [2] = assay: ELISA of secreted mature GDF15 in LN-229 culture medium; conditions: LN-229, 48 h following treatment
Experimental: ELISA Assay: Mature GDF15 was detected in the cell culture medium using the GDF15 Quantikine ELISA kit from R&D Systems (Minneapolis, Minn.), according to the manufacturer's instructions. Sample absorbance was measured at 450 nm using a Bio-Rad Benchmark Plus microplate reader.

miR-3189-5p = assay: qRT-PCR of miR-3189-5p expression in fenofibrate-treated LN-229 and U87MG cells; conditions: fenofibrate treatment, 48 h
Experimental: as §1

GDF15 [3] = assay: Western blot of GDF15 protein in fenofibrate-treated LN-229 cells; conditions: LN-229, fenofibrate treatment
Experimental: (§3) Western Blot Analysis: Cells were collected by gently scraping in the presence of PBS (Gibco, Life Technologies), followed by centrifugation and disruption of the cell pellet in lysis buffer (50 mM HEPES, pH 7.5, 150 mM NaCl, 1.5 mM MgCl2, 1 mM EGTA, pH 8.4, 10% glycerol, 1% Triton X-100, 1 mM PMSF, 1 mM sodium orthovanadate (NA3VO4), Phosphatase and Protease Inhibitor Cocktails (Sigma). Whole-cell lysates (30 to 70 μg) were separated on a 4-15% SDS-PAGE gel (Bio-Rad, Hercules, Calif.). GDF15 and E2F-1 antibodies were purchased from Cell Signaling Technology (Beverly, Mass.). The antibody to detect p63RhoGEF was obtained from GeneTex (Irvine, Calif.). GDF15 antibody was purchased from R&D Systems (Minneapolis, Minn.), and anti-GRB2 was from BD Transduction Laboratories (San Jose, Calif.). SF3B2 and 14-3-3ζ antibodies were obtained from Santa Cruz Biotechnology.

GDF15 mRNA [4] = assay: qRT-PCR of GDF15 expression in fenofibrate-treated U87MG cells; conditions: 50 μM, 24 and 48 h time points
Experimental: as §1
as §2, with “The results in FIG. 6A show a 60- and 35-fold up-regulation of GDF15 gene expression in the two cell lines.” left out

SF3B2 3′UTR = assay: Dual luciferase assay, psiCHECK2/SF3B2 3′UTR in LN-229 cells; conditions: co-transfected with miR-3189-3p mimic
From the text: (§4) Cloning for microRNA Functional Analysis: The genomic sequence corresponding to the 3′UTR of p63RhoGEF was PCR amplified from LN-229 cells. This PCR product was ligated into the multiple cloning sites downstream of the Renilla luciferase reporter gene in the psiCHECK-2 vector (Promega, Madison, Wis.). This vector also contains a firefly luciferase reporter sequence, which allows for normalization of transfection efficiency. The primers used were: forward, 5′-[…] (SEQ ID NO: 7), containing the XhoI restriction site (underlined) and reverse, 5′-[…] (SEQ ID NO: 8), containing the NotI restriction site (underlined). The genomic sequence corresponding to the 3′UTR of SF3B2 was also cloned into the psiCHECK-2 vector. The primers used were: forward, 5′-[…] (SEQ ID NO: 9), containing the XhoI restriction site (underlined) and reverse, 5′-[…] (SEQ ID NO: 10) containing the NotI restriction site (underlined).
(§5) The oligonucleotides for the mutagenesis of p63RhoGEF sites were as follows: site 1 forward, 5′-[…] (SEQ ID NO: 11), site 2 forward, 5′-[…] (SEQ ID NO: 12), and site 3 forward, 5′-[…] (SEQ ID NO: 13). […]
(§6) After 24 h, cells were harvested and lysates were assayed for luciferase activity with the Dual-Luciferase Reporter Assay System (Promega) using a Synergy 2 microplate reader (BioTek Instruments, Inc., Winooski, Vt.). […]

p63RhoGEF 3′UTR = assay: Dual luciferase assay, psiCHECK2/p63RhoGEF 3′UTR in LN-229 cells; conditions: co-transfected with miR-3189-3p mimic
From the text: as §4, §5, §6

SF3B2 mRNA = assay: qRT-PCR of SF3B2 mRNA in transfected LN-229 and U87MG cells; conditions: co-expressed with miR-3189-3p
Experimental: as §1

p63RhoGEF mRNA = assay: qRT-PCR of p63RhoGEF mRNA in transfected LN-229 and U87MG cells; conditions: co-expressed with miR-3189-3p
Experimental: as §1

E2F-1 = assay: Western blot of E2F-1 protein in LN-229 cells; conditions: co-transfected with miR-3189-3p
Experimental: as §3

LN-229 and U87MG cells = assay: Cell proliferation assay (MTS)
Experimental: For transfection experiments, cells were seeded at a density of 4×10^5 cells/60 mm dish or 2.5×10^4 cells/well in 12-well plates, and transfected using Lipofectamine 2000 (Life Technologies, Grand Island, N.Y.) per manufacturer's instructions. SF3B2 and p63RhoGEF siRNAs and controls were purchased from Santa Cruz (Santa Cruz, Calif.), and were used at the final concentration of 10 nM. Human PPARα siRNA was the ON-TARGET plus SMART pool from Thermo Scientific Dharmacon (Lafayette, Colo.), and it was used at the final concentration of 100 nM. The PPARα […] WY146,43 was from Cayman Chemical (St. Louis, Mo.). For the transient transfection experiments, cells were seeded at a density of 4×10^5 cells/60 mm dish or 2.5×10^4 cells/well in 12-well plates, and transfected using Lipofectamine 2000 reagent (Life Technologies) per manufacturer's instructions.
At 72 h after transfection, cells were incubated with medium containing 3-(4,5-dimethylthiazol-2-yl)-5-(3-carboxymethoxyphenyl)-2-(4-sulfophenyl)-2H-tetrazolium (MTS) reagent (Promega) diluted according to manufacturer's instructions. Cells were then incubated at 37° C. for 30-60 min and absorbance was measured at a wavelength of 490 nm using a Bio-Rad Benchmark Plus microplate reader.

LN-229 cells = assay: Rescue from fenofibrate-induced cell death; conditions: LN-229 cells treated with fenofibrate
[5] = 48 h after treatment/transfection, with fenofibrate

Compound: Cc1cccc(Nc2cc(Cl)nc(SCC(=O)O)n2)c1C [WY146,43]
- impact on miR-3189-3p levels triggered by fenofibrate (miR-3189-3p; [5]): no significant impact
- impact on GDF15 levels triggered by fenofibrate (GDF15 mRNA [1]; [5]): no significant impact

Compound: COc1cccc2c1C(=O)c1c(O)c3c(c(O)c1C2=O)C[C@@](O)(C(=O)CO)C[C@@H]3O[C@H]1C[C@H](N)[C@H](O)[C@H](C)O1 [doxorubicin]
- miR-3189-3p relative expression compared to untreated cells (miR-3189-3p): only in fenofibrate treated cells

Compound: CC(C)OC(=O)C(C)(C)Oc1ccc(C(=O)c2ccc(Cl)cc2)cc1 [fenofibrate, propan-2-yl 2-{4-[(4-chlorophenyl)carbonyl]phenoxy}-2-methylpropanoate]
- overexpression of miR-3189-3p linked to Ago2 immunocomplexes compared to untreated cells (Ago2 immunocomplexes): ~35 fold
- secreted GDF15 (GDF15 [2]): significant levels
- expression of miR-3189-5p (miR-3189-5p): did not change
- GDF15 protein content (GDF15 [3]): large increase
- miR-3189-3p relative expression compared to untreated cells (miR-3189-3p): 4.8 fold
- up-regulation of GDF15 gene expression (GDF15 mRNA [1]; 50 μM, 24 and 48 h time points, LN-229): 60 fold
- GDF15 mRNA up-regulation relative to untreated cells (GDF15 mRNA [1]; LN-229, 48 h, comparison with doxorubicin and paclitaxel (FIG. 6E)): more than 60 folds
- up-regulation of GDF15 gene expression (GDF15 mRNA [4]): 35 fold

Compound: CC(=O)O[C@H]1C(=O)[C@@]2(C)[C@H]([C@H](OC(=O)c3ccccc3)[C@]3(O)C[C@H](OC(=O)[C@H](O)[C@@H](NC(=O)c4ccccc4)c4ccccc4)C(C)=C1C3(C)C)[C@]1(OC(C)=O)CO[C@@H]1C[C@@H]2O [paclitaxel]
- miR-3189-3p relative expression compared to untreated cells (miR-3189-3p): only in fenofibrate treated cells

Compound: anti-miR-3189-3p: miR-3189-3p mirVana miRNA inhibitor (SEQ ID NO: 22) purchased from Life Technologies (UGCCCCAUCUGUGCCCUGGGUAGGA; listed as RNA, chemistry not given here)
- effect on miR-3189-3p inhibition of SF3B2 3′UTR reporter (SF3B2 3′UTR): almost completely alleviated
- effect on miR-3189-3p inhibition of p63RhoGEF 3′UTR reporter (p63RhoGEF 3′UTR): efficiently reverted
- effect on miR-3189-3p downregulation of SF3B2 transcript (SF3B2 mRNA): counteracted
- effect on miR-3189-3p downregulation of p63RhoGEF transcript (p63RhoGEF mRNA): counteracted
- effect on miR-3189-3p down-regulation of E2F-1 (E2F-1): reversed
- changes in proliferation and cell cycle on co-transfection with miR-3189-3p (LN-229 and U87MG cells; co-transfected with miR-3189-3p): No significant changes
- rescue from fenofibrate-induced cell death (LN-229 cells): did not rescue

Compound: miR-3189-5p: mature microRNA of 25 nucleotides from the miR-3189 stem-loop (SEQ ID NO: 21) (GUUGCCCCAUCUGUGCCCUGGGUAGGA; listed as RNA, chemistry not fully specified)
- changes in cell morphology, cell proliferation and migration (LN-229 and U87MG cells; transfection of LN-229 and U87MG cells): did not elicit changes in cell morphology, nor inhibited cell proliferation and migration

Source: US10308939B2, “Use of an miRNA to reduce proliferation of a cancer cell” (Board of Supervisors of Louisiana State University and …, priority 2014, dated 2019)
